Assay [1] has as its target T1, PKR in ex vivo red blood cells from healthy individuals (Homo sapiens, UniProt P30613).
T1 construct: endogenous in cells; host or cells: human red blood cells isolated from fresh peripheral blood of healthy individuals
The assay is described as follows: ex vivo pyruvate kinase (PKR) activity experiment, red blood cells of healthy individuals. It is filed as cell-based. To be noted: 3 hours co-cultivation. An outline of the steps:
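Washed, Percoll-purified human RBCs at 1 × 10^7 cells/mL were exposed to compound (final 1–3000 nM, 1% DMSO) for 3 h at 37°C, then lysed. PKR activity in lysate was followed kinetically by fluorescence at 540/590 nm over 1 h. Slope versus 1% DMSO control gave % activation; AC50 from variable-slope fit.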

Assay [2] concerns the target recombinant human PKR (Homo sapiens, UniProt P30613). The assay is described as follows: pyruvate kinase (PKR) activity test, activation of recombinant enzyme (fluorescence kit). It is filed as biochemical. The method, then: To test the activation effect of the compound of the present disclosure on recombinant human PKR.
3.1 A recombinant human PKR enzyme solution was prepared at a concentration of 60 ng/well (a 20 µL reaction system), and 5 µL of the solution was added into each well of a black transparent bottom 384-well plate.
3.2 Compound solutions were prepared at different concentrations, with the final concentrations of 1000/300/100 nM (containing 1% DMSO). Each 5 µL of the compound solution was added into the plate in step 3.1 and mixed well. The plate was incubated at room temperature for 10 min.
3.3 A reaction system was prepared according to the instructions of a kit (as shown in the table below), and 10 µL of the reaction system was added into each well of the 384-well plate, and mixed uniformly with the solution in step 3.2.
3.4 The 384-well plate was placed on a microplate reader to detect the fluorescence value at 540/590 nm, where the value was read every 2 minutes and the detection was conducted continuously for 1 hour.
3.5 The Slope value within the detection time was calculated, and the 1% DMSO well was used as a control well to calculate a compound activation rate. Activation rate % = (Slopeofcompoundwell/Slopeofcontrolwell) × 100% [formula]
With the log value of the compound concentration as the X axis and the percentage activation rate as the Y axis, a dose-effect curve was fitted with the log(agonist) vs. response-variable slope of the analysis software GraphPad Prism 5, and the AC50 value of the activity of each compound against PKR was obtained. Y = min + (max−min)/(1+10^(∧)((LogAC50−X)×Hillslope)). [formula]

For assay [3] the following is noted: Phase II clinical studies, at week 12; cited from earlier work.

The text below walks through data of patent publication EP4721737A1, “USE OF PHARMACEUTICAL COMPOSITION COMPRISING COMPOUND HAVING BIS(AZANYLYLIDENE) SULFONYL STRUCTURE FOR TREATING ANEMIA-RELATED DISEASES” (Scinnohub Pharmaceutical Co., Ltd., priority 2023, dated 2024).

T1 sequence (P30613 whole entry): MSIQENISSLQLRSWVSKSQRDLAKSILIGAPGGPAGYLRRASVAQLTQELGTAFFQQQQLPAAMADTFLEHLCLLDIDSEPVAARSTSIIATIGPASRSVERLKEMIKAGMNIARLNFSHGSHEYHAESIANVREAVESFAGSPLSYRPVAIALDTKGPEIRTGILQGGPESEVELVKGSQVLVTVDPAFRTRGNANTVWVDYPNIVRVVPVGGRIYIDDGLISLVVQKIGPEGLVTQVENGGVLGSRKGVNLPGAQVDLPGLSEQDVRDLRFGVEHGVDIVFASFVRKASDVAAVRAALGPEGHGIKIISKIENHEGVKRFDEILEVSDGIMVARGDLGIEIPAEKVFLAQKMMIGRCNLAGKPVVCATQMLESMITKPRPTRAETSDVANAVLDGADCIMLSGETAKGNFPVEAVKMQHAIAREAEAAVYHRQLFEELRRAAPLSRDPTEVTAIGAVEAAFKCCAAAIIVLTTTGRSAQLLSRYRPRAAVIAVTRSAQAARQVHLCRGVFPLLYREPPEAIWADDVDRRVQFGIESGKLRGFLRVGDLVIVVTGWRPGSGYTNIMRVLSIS
recombinant human PKR, sequence (P30613 whole entry): as above

`COc1ccc(S(=O)(=O)N2CC(=C3CN(C(=O)[C@H](CO)c4ccc(F)cc4F)C3)C2)nc1` [Compound 87, (S)-2-(2,4-difluorophenyl)-3-hydroxy-1-(1'-((5-methoxypyridin-2-yl)sulfonyl)-1',4'-dihydro-2H,2'H-[3,3'-diazetidinylidene]-1(4H)-yl)propan-1-one]: the AC50 in assay [1] and in assay [2] was < 100 nM in each case.

With `O=C(N1CC(=C2CN(S(=O)(=O)c3ccccn3)C2)C1)C1(c2ccccc2)COC1` [Compound 89, (3-phenyloxetan-3-yl)(1'-(pyridin-2-ylsulfonyl)-1',4'-dihydro-2H,2'H-[3,3'-diazetidinylidene]-1(4H)-yl)methanone], the AC50 was < 100 nM in assay [1] and 101 to 300 nM in assay [2].

For the molecule `[2H]C([2H])([2H])Oc1ccc(S(=O)(=O)N2CC(=C3CN(C(=O)[C@H](CO)c4ccccc4)C3)C2)nc1` [Compound 91, (S)-3-hydroxy-1-(1'-((5-(methoxy-d3)pyridin-2-yl)sulfonyl)-1',4'-dihydro-2H,2'H-[3,3'-diazetidinylidene]-1(4H)-yl)-2-phenylpropan-1-one], the AC50 in assay [1] and in assay [2] was < 100 nM each time.

`O=C(c1ccc(NS(=O)(=O)c2cccc3cccnc23)cc1)N1CCN(CC2CC2)CC1` [Mitapivat]: in assay [3], the “average increase in HGB” value is 1.34 g/dL and the “patients achieved an increase in HGB of 1.0 g/dL” value is recorded as 92.3%.

The AC50 is the concentration at which the activity in the assay is half-maximal.
